Where two headings read alike, the source gives them in different places.
Molecular target: T. aurantiacus GH61A polypeptide (Thermoascus aurantiacus, UniProt G3XAP7, N13Y)
Type: biochemical
Conditions: for hydrolysis of AVICEL in the presence of both T. aurantiacus GH61A polypeptide and dioxy compound relative to inhibition by the dioxy compound / dioxy compound effect(no GH61): dioxy compound 1 mM; for hydrolysis of AVICEL in the presence of both T. aurantiacus GH61A polypeptide and dioxy compound relative to inhibition by the dioxy compound: GH61A polypeptide 2 mg per g cellulose, cellulose 29.5 mg per ml; for dioxy compound effect(no GH61): AVICEL 29.5 mg cellulose per ml; for dioxy compound effect(no GH61) (Equation 3), ratio of percent conversion with/without dioxy compound: day 1 to day 8
Protocol: The cellulase preparation is designated herein as “Trichoderma reesei cellulase composition” unless specified otherwise.
Later experiments were mixed thoroughly prior to incubation in an IsoTemp incubator (Fisher Scientific, Hampton, N.H., USA) and prior to sampling for analysis, but were not continuously mixed.
Data were processed using MICROSOFT EXCEL™ software.

[1] = AVICEL 14 mg cellulose per ml, dioxy compound 5 mM, T. aurantiacus GH61A polypeptide 0.4 mg per g cellulose, 1, 3, and 7 days
[2] = AVICEL, T. reesei cellulase composition, dioxy compound 5 mM, T. aurantiacus GH61A polypeptide present, day 1
[3] = AVICEL, T. reesei cellulase composition, dioxy compound 5 mM, T. aurantiacus GH61A polypeptide present, day 5
[4] = AVICEL, T. reesei cellulase composition, dioxy compound 5 mM, T. aurantiacus GH61A polypeptide present, day 8
[5] = AVICEL, T. reesei cellulase composition, dioxy compound 5 mM
[6] = AVICEL, T. reesei cellulase composition, dioxy compound 5 mM, day 5 (Example 24)

Sequence of T. aurantiacus GH61A polypeptide (G3XAP7 whole entry N13Y): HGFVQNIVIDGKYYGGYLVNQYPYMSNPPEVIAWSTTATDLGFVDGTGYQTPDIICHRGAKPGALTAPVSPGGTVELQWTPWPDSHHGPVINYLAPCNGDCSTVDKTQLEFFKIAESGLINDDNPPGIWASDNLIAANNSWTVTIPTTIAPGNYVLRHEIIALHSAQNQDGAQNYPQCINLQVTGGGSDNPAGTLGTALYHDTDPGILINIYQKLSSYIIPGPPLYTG

## OCCCO [1,3-propanediol]
[1]
  dioxy compound effect(+GH61) (Equation 4): greater than 1
AVICEL 14 mg cellulose per ml, dioxy compound 5 mM, T. aurantiacus GH61A polypeptide 0.4 mg per g cellulose, 1, 3, and 7 days, increasing as hydrolysis progressed
  GH61 effect (Equation 5): greater than 1
AVICEL 14 mg cellulose per ml, dioxy compound 5 mM, 1, 3, and 7 days, especially early stages
  dioxy compound effect(no GH61) (Equation 3): greater than 1

## CC(O)CC(C)O (stereo not drawn) [2,4-pentanediol]
[1]
  dioxy compound effect(+GH61) (Equation 4): greater than 1
AVICEL 14 mg cellulose per ml, dioxy compound 5 mM, T. aurantiacus GH61A polypeptide 0.4 mg per g cellulose, later hydrolysis stages (day 7)
  GH61 effect (Equation 5): greater than 1
AVICEL 14 mg cellulose per ml, dioxy compound 5 mM, day 1
  dioxy compound effect(no GH61) (Equation 3): greater than 1

## COc1cccc(OC)c1O [2,6-dimethoxyphenol]
  hydrolysis of AVICEL in the presence of both T. aurantiacus GH61A polypeptide and dioxy compound relative to inhibition by the dioxy compound: overall enhancement of cellulolysis

## CCOCC(O)CO (stereo not drawn) [3-ethoxy-1,2-propanediol, 3-ethyoxy-1,2-propanediol]
3 days
  dioxy compound effect(no GH61): 1.11±0.0167
7 days
  dioxy compound effect(no GH61): 1.20±0.0210

## Oc1ccc(Cl)cc1O [4-chloro-1,2-benzenediol]
[2]
  dioxy compound effect(+GH61) (Equation 4): increased
[3]
  dioxy compound effect(+GH61) (Equation 4): less than 1
[4]
  dioxy compound effect(+GH61) (Equation 4): less than 1
[5]
  dioxy compound effect(no GH61) (Equation 3), ratio of percent conversion with/without dioxy compound: less than 1
AVICEL, T. reesei cellulase composition, dioxy compound 5 mM, day 1 (Example 24)
  GH61 effect (Equation 5), ratio of percent conversion with/without GH61 polypeptide: greater than 1
[6]
  GH61 effect (Equation 5): greater than 1

## O=[N+]([O-])c1ccc(O)c(O)c1 [4-nitro-1,2-benzenediol]
[2]
  dioxy compound effect(+GH61) (Equation 4): less than 1
[3]
  dioxy compound effect(+GH61) (Equation 4): less than 1
[4]
  dioxy compound effect(+GH61) (Equation 4): less than 1
[5]
  dioxy compound effect(no GH61) (Equation 3), ratio of percent conversion with/without dioxy compound: less than 1
[6]
  GH61 effect (Equation 5): greater than 1
AVICEL, T. reesei cellulase composition, dioxy compound 5 mM, day 8 (Example 24)
  GH61 effect (Equation 5): greater than 1

## COC(=O)c1ccc(O)cc1 [methyl-4-hydroxybenzoate]
  hydrolysis of AVICEL in the presence of both T. aurantiacus GH61A polypeptide and dioxy compound relative to inhibition by the dioxy compound: overall enhancement of cellulolysis

## O=C(O)C(O)C(O)C(=O)O (stereo not drawn) [tartrate, tartaric acid]
3 days
  dioxy compound effect(no GH61): 0.984±0.00843
7 days
  dioxy compound effect(no GH61): 1.02±0.0573
